Calls of active or inactive are those of the source. The calls are words filed in the database; no cut-off is given here.
How the values were obtained:
Mus musculus [1] = test: Anti-atherosclerosis activity in ApoE knockout pro-atherogenic western diet-induced Tac mouse carotid artery ligation model of atherosclerosis assessed as reduction in coronary flow reserve at 75 to 150 umol/kg/day mixed with food measured for 3 weeks by doppler echocardiography; assay type: functional, organism-based
Homo sapiens [2] = species on record: Homo sapiens; test: Selectivity ratio of IC50 for sPLA2-2A (unknown origin) to IC50 for sPLA2-10 (unknown origin)
Homo sapiens [3] = species on record: Homo sapiens; test: Selectivity ratio of IC50 for sPLA2-5 (unknown origin) to IC50 for sPLA2-10 (unknown origin)
[4] = molecular target: Group 10 secretory phospholipase A2 (Mus musculus) (UniProt Q9QXX3); test: Inhibition of mouse sPLA2-10
Mus musculus [5] = test: Anti-atherosclerosis activity in ApoE knockout pro-atherogenic western diet-induced Tac mouse carotid artery ligation model of atherosclerosis assessed as reduction in plasma free cholesterol levels at 75 umol/kg/day mixed with food measured for 3 weeks; assay type: functional, organism-based
Mus musculus [6] = test: Anti-atherosclerosis activity in ApoE knockout pro-atherogenic western diet-induced Tac mouse carotid artery ligation model of atherosclerosis assessed as reduction in plasma triglyceride levels at 75 umol/kg/day mixed with food measured for 3 weeks; assay type: functional, organism-based
Mus musculus [7] = test: Anti-atherosclerosis activity in ApoE knockout pro-atherogenic western diet-induced Tac mouse carotid artery ligation model of atherosclerosis assessed as reduction in plasma free fatty acid levels at 75 umol/kg/day mixed with food measured for 3 weeks; assay type: functional, organism-based
Mus musculus [8] = test: Anti-atherosclerosis activity in ApoE knockout pro-atherogenic western diet-induced Tac mouse carotid artery ligation model of atherosclerosis assessed as reduction in plasma esterified cholesterol levels at 75 umol/kg/day mixed with food measured for 3 weeks; assay type: functional, organism-based
Mus musculus [9] = test: Anti-atherosclerosis activity in ApoE knockout pro-atherogenic western diet-induced Tac mouse carotid artery ligation model of atherosclerosis assessed as reduction in plasma lipoprotein-associated cholesterol fraction levels at 75 umol/kg/day mixed with food measured for 3 weeks; assay type: functional, organism-based
Mus musculus [10] = test: Anti-atherosclerosis activity in ApoE knockout pro-atherogenic western diet-induced Tac mouse carotid artery ligation model of atherosclerosis assessed as reduction in plasma triglyceride levels at 150 umol/kg/day mixed with food measured for 3 weeks; assay type: functional, organism-based
Mus musculus [11] = test: Anti-atherosclerosis activity in ApoE knockout pro-atherogenic western diet-induced Tac mouse carotid artery ligation model of atherosclerosis assessed as reduction in plasma free fatty acid levels at 150 umol/kg/day mixed with food measured for 3 weeks; assay type: functional, organism-based
Mus musculus [12] = test: Anti-atherosclerosis activity in ApoE knockout pro-atherogenic western diet-induced Tac mouse carotid artery ligation model of atherosclerosis assessed as reduction in plasma esterified cholesterol levels at 150 umol/kg/day mixed with food measured for 3 weeks; assay type: functional, organism-based
Mus musculus [13] = test: Anti-atherosclerosis activity in ApoE knockout pro-atherogenic western diet-induced Tac mouse carotid artery ligation model of atherosclerosis assessed as reduction in plasma free cholesterol levels at 150 umol/kg/day mixed with food measured for 3 weeks; assay type: functional, organism-based
Mus musculus [14] = test: Anti-atherosclerosis activity in ApoE knockout pro-atherogenic western diet-induced Tac mouse carotid artery ligation model of atherosclerosis assessed as reduction in plasma lipoprotein-associated cholesterol fraction levels at 150 umol/kg/day mixed with food measured for 3 weeks; assay type: functional, organism-based
Mus musculus [15] = test: Anti-atherosclerosis activity in ApoE knockout pro-atherogenic western diet-induced Tac mouse carotid artery ligation model of atherosclerosis assessed as reduction in heart rate at 75 to 150 umol/kg/day mixed with food measured for 3 weeks by doppler echocardiography; assay type: functional, organism-based
Mus musculus [16] = test: Anti-atherosclerosis activity in ApoE knockout pro-atherogenic western diet-induced Tac mouse carotid artery ligation model of atherosclerosis assessed as reduction in thickness of artery wall at 75 to 150 umol/kg/day mixed with food measured for 3 weeks by ultrasound biomicroscopy; assay type: functional, organism-based
Mus musculus [17] = test: Anti-atherosclerosis activity in ApoE knockout pro-atherogenic western diet-induced Tac mouse carotid artery ligation model of atherosclerosis assessed as increase in lumen thickness at 75 to 150 umol/kg/day mixed with food measured for 3 weeks by ultrasound biomicroscopy; assay type: functional, organism-based
Mus musculus [18] = test: Anti-atherosclerosis activity in ApoE knockout pro-atherogenic western diet-induced Tac mouse carotid artery ligation model of atherosclerosis assessed as reduction in neointima and media formation at 75 to 150 umol/kg/day mixed with food measured for 3 weeks; assay type: functional, organism-based
[19] = molecular target: Group 10 secretory phospholipase A2 (Homo sapiens) (UniProt O15496)
Chain of Group 10 secretory phospholipase A2 (Homo sapiens) (O15496 whole entry): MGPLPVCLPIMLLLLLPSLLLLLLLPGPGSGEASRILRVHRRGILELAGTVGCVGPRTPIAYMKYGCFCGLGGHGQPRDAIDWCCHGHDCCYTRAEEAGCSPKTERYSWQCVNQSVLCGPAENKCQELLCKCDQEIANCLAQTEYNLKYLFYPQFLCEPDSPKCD
Description: Inhibition of recombinant human sPLA2-10 using human HDL as substrate pretreated for 20 mins followed by substrate addition and measured after 60 mins by NEFA based assay

Chain of Group 10 secretory phospholipase A2 (Mus musculus) (Q9QXX3 whole entry): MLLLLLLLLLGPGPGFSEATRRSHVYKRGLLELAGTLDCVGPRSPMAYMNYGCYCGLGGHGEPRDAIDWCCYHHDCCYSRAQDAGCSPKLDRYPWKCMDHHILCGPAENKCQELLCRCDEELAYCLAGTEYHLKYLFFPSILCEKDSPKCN

With `CC(CC(=O)O)c1cccc(-n2c(C(N)=O)cc3ccc(OC(F)(F)F)cc32)n1` (stereo in doubt; (-)-17) the Activity (Mus musculus [1]) was “inactive”, the Ratio IC50 (Homo sapiens [2]) was 45 and the Ratio IC50 (Homo sapiens [3]) was 390. For the same molecule, the IC90 [4] was 820 nM, the Activity (Mus musculus [5]) was “inactive” and the Activity (Mus musculus [6]) was “inactive”. For the same molecule, the Activity (Mus musculus [7]) was “inactive”, the Activity (Mus musculus [8]) was “inactive” and the Activity (Mus musculus [9]) was “inactive”. The Activity (Mus musculus [10]) was “Active”, the Activity (Mus musculus [11]) was “Active” and the Activity (Mus musculus [12]) was “Active”. For the same molecule, the Activity (Mus musculus [13]) was “Active”, the Activity (Mus musculus [14]) was “Active” and the Activity (Mus musculus [15]) was “inactive”. For the same molecule, the Activity (Mus musculus [16]) was “inactive”, the Activity (Mus musculus [17]) was “inactive” and the Activity (Mus musculus [18]) was “inactive”. For the same molecule, the IC90 [19] was 362 nM.

Reference: ChEMBL document CHEMBL4196112, “Design of Selective sPLA2-X Inhibitor (-)-2-{2-[Carbamoyl-6-(trifluoromethoxy)-1H-indol-1-yl]pyridine-2-yl}propanoic Acid” (ACS Med Chem Lett, 2018)
